# Reference: patent US11439713B2, “Method for creating a renal injury model to screen molecules for the treatment of renal injury” (BAYER AKTIENGESELLSCHAFT, priority 2017, dated 2022)
# “Also recorded” adds a separate entry of the source.
# What was measured:
# Assay type in all cases: in vivo
# [1] = test system: C57Bl/6 mice; assay: AGISHA model with AngII as injury inducer (ACR in urine); settings: for ACR in urine collected for 4 hours after AngII bolus injections: vs NaCl control group; for ACR in urine collected for 4 hours after first AngII bolus injections, experimental day 1: vs NaCl group
# Text: Five groups with 10-12 mice per group (C57Bl/6, Charles River Laboratories, 6-7 weeks old) were set for one experiment. After delivery, animals remained in a temperature- and light-controlled room with standardized mouse chow and water ad libitum for a one week acclimatization period, following guidelines of local governmental institutions (LANUV Germany). The groups were divided as follows (see FIG. 1): • 1. Control group without AngII bolus injection, but with control saline and additional (oral) administration of drug vehicle (10% ethanol, 40% solutol, 50% water or saline). • 2. AngII group, treated with AngII in normal saline, and drug vehicle. AngII administration occurred in two bolus injections (i.v.+s.c.) of 10 μg (5 μg i.v.+5 μg s.c.), 16 μg (8 μg i.v.+8 μg s.c.) and 20 μg (10 μg i.v.+10 μg s.c.) per mouse, where the first bolus was injected intravenously and the second bolus subcutaneously. The drug vehicle was administered orally.
# 3. Candidate groups 3 and 4: AngII injection and additional treatment with the investigated drug/drugs. For substance testing, drugs or appropriated vehicles were administered orally, via i.v., s.c., or i.p. Administration occurred prior to or after AngII-injection. For example, investigated drug/drugs were given orally 30 minutes before the induction of the injury. • 4. Group 5 is the positive control group Animals were injected with AngII and treated orally with Losartan 30 mg/kg. Losartan is an AngII receptor blocker AT1 (Pieter B M et al, Pharma. Rev., 1993, Kang P M et al, Progress in Cardiology, 1994).
# After AngII injection animals were placed in metabolic cages (Technoplast, Italy) for urine collection for up to 4 hours. At the end of the experiment the urine was analyzed to quantify the ACR. More specifically, the collected urine was analyzed using an automatic analyzer for urinary albumin as well as urinary creatinine (Coban® Integra 400, Roche, Basel, SUI) or using the Mouse albumin ELISA kit (ABCAM, Cambridge, UK). […] The AGISHA model was performed in 3 identical cycles with a one-week break for recovery.
# Negative and positive control experiment. To confirm the findings shown in FIG. 2-4, the mode of action in AGISHA was investigated. In the following experiment, three of the animal groups were pre-treated with three different drugs by oral application 30 minutes before administration of injury inducer (see FIG. 5). • 1) Enalapril 10 mg/kg, an angiotensin-converting enzyme (ACE) inhibitor, is standard of care for high blood pressure. It was used as positive modulator control 1 of the renin-angiotensin system (RAS) in the AGISHA model. • 2) Losartan potassium, 30 mg/kg, angiotensin II type I receptor (AT1) antagonist, standard of care for high blood pressure (Kang et al, 1994; Sica D A et al, Clin Parmacokinet., 2005) was used as positive modulator control 2 of the RAS system in the AGISHA model. • 3) Tivozanib, 3 mg/kg, vascular endothelial grow factor receptor tyrosine kinase inhibitor (Campas C et al, Drugs Fut., 2009) was used as negative modulator of the RAS system during AGISHA model. […]
# The experiment was performed as described in example 5, except that the sGC stimulator 5-cyclopropyl-2-[1-(2-fluorobenzyl)-1H-pyrazolo[3,4-b]pyridin-3-yl]pyrimidin-4-amine was used for treatment. […] Losartan (30 mg/kg) was used as positive control.
# [2] = test system: mice; assay: GFR-based model with AngII and Sinestrin-FITC (GFR acute modulation); settings: for GFR 2 hrs after AngII bolus injection: vs control group
# Text: Acute GFR modulation is a relevant phenomenon in the field of nephrology (Fergusan and […], Clin. Chem., 58(4), 2012, p. 680-689). GFR is the major readout parameter for chronic kidney disease (CKD) stage assessment (Lopez-Giacoman and Madero, World J Nephrol. 4(1), 2015, 57-73). The GFR is also a very stable and robust physiological parameter that is subject to positive and negative feedback regulation. The following protocol and experimental setup (FIG. 21) was established to model acute GFR modulation. 1. Control group without AngII bolus injection, but with control saline (0.9%)+[…] 150 mg/kg and additional s c administration of 0.9% NaCl (100 μl+100 μl) 2. AngII group, treated with AngII in two bolus injections: First bolus of 20 μg/mouse of AngII in normal saline administered in combination with […] 150 mg/kg, 50 μl+50 μl, injected via tail vein. Second bolus injected s.c. comprising 20 μg AngII, 100 μl. 3. Losartan group was treated orally with 30 mg/kg of Losartan Potassium, 30 min prior to the AngII injury. AngII injury occurred in two bolus injections as described for the AngII group (total 40 μg). 1. Control group without AngII bolus injection, but with control saline (0.9%)+[…] 150 mg/kg and additional s.c. administration of 0.9% NaCl (100 μl+100 μl) 2. AngII group, treated with AngII in two bolus injections: First bolus of 20 μg/mouse of AngII in normal saline administered in combination with […] 150 mg/kg, 50 μl+50 μl, injected via tail vein. Second bolus injected s.c. comprising 30 μg AngII, 100 μl. 3. Losartan group was treated orally with 30 mg/kg of Losartan Potassium, 30 min prior to the AngII injury. AngII injury occurred in two bolus injections as described for the AngII group (total 50 μg). For substance testing, animals were pre-treated with the respective drugs or vehicles 30 min before AngII-injection, via oral gavage, s.c, i.p., or tail vein injection. Subsequently, […] mix bolus was administered to the animals with the tracer (FIG. 21).
# [3] = test system: mice; assay: GFR-based model with AVP and Sinestrin-FITC; settings: pre-treatment with Losartan 30 mg/kg; AVP 35 μg
# Protocol: A similar setup (FIG. 23) was used with AVP (Sigma-Aldrich, Mo.) at a dose of 35 μg, i.e. using a first bolus with 15 μg AVP, injected i.v. in combination with Sinestrin-FITC 150 mg/kg (50 ul+50 ul) and using a second bolus of 20 μg AVP, 100 uL, injected i.v. As before GFR, was decreased by AVP compared with the control group.
# [4] = test system: C57Bl/6/J male mice; assay: GFBI test model with AngII (transcutaneous fluorescence of Ficoll-FITC); settings: for Half-life of the fluorescent molecule in the blood 2 h after AngII bolus injection: vs control
# Protocol: After delivery, C57Bl/6/J male mice remained in a temperature- and light-controlled room with standardized mouse chow and water ad libitum for a one week acclimatization period, following guidelines of local governmental institutions (LANUV Germany). C57Bl/6/J mice (6-7 weeks) received an intravenous mixture of FITC-FICOLL 70 kDa (Sigma) and 10 μg AngII mix 100 μL, followed by a 10 μg (100 μL) subcutaneous AngII bolus as described in example 1. The groups were divided as follows, see FIG. 17:
# 1. Control group without AngII bolus injection, but with control saline 0.9%+Ficoll-FITC 150 mg/kg and additional s c administration of a bolus of NaCl 0.9%.
# 2. AngII group, treated with AngII in two bolus injections (10 μg/mouse of AngII+Ficoll-FITC, 150 mg/kg, both dissolved in 0.9% NaCl, first bolus injected i.v. via tail vein (5 μg AngII) and a second subcutaneous bolus injection (5 μg AngII).
# 3. AngII group, treated with AngII in two bolus injections (20 μg/mouse total AngII+Ficoll-FITC, 150 mg/kg 150 mg/kg, both dissolved in 0.9% NaCl, first bolus injected i.v. via tail vein (10 μg AngII) and a second subcutaneous bolus injection (10 μg AngII).
# TF of the FICOLL-FITC was detected via the transcutaneous method developed by MediBeacon Inc. (MediBeacon Inc., Mo., USA). In brief: all experimental animals were shaved with standard mask anesthesia 1 h before the determination of TF for the FICOLL-FITC Immediately after the injury induction the portable transcutaneous measurement device was placed on the left dorsal back side of the animal for 2 hours. The results were analyzed with the MediBeacon Inc. software. […] The decay of the Ficoll-FITC dye was visualized as a flat line, with a half-life of ca. 396 minutes.
# [5] = oral 30 minutes before AngII 10 μg i.v.+10 μg s.c., Enalapril 10 mg/kg, Losartan potassium 30 mg/kg, Tivozanib 3 mg/kg, FIG. 6
# [6] = pre-treatment orally, AngII 10 μg i.v.+10 μg s.c., OGT 2115 40 mg/kg, Losartan Potassium 30 mg/kg, FIG. 10
compound,measurement,setting,value
O=C(O)CCCCN(CCc1cc(F)ccc1OCc1ccc(-c2ccc(C(F)(F)F)cc2)cc1)Cc1ccc(C(=O)O)cc1 [4-({(4-carboxybutyl)[2-(5-fluoro-2-{[4′-(trifluoromethyl)biphenyl-4-yl]methoxy}phenyl)ethyl]amino}methyl)benzoic acid],Reduction of ACR compared with the control group,[1]; 3 mg/kg orally prior to AngII 10 μg i.v.+10 μg s.c.,71%
same,"AngII induced ACR, mean±SD","[1]; 3 mg/kg orally prior to AngII 10 μg i.v.+10 μg s.c., urine 4 hours",35 ± 26 µg/mg
CCOC(=O)[C@H](CCc1ccccc1)N[C@@H](C)C(=O)N1CCC[C@H]1C(=O)O [Enalapril],Effect on ACR induced by AngII,[1]; [5],significantly reduced
CCCCc1nc(Cl)c(CO)n1Cc1ccc(-c2ccccc2-c2nn[nH]n2)cc1 [Losartan],Reduction of AngII induced ACR,"[1]; Losartan 30 mg/kg orally, positive control, AngII 10 μg i.v.+10 μg s.c.",around 90%
same,Effect on AngII-induced ACR induction,"[1]; Losartan 30 mg/kg orally, FIG. 2 experiment",AngII bolus had no effect on ACR; also recorded: prevents AngII-induced ACR induction
same,Effect on ACR induced by AngII,[1]; [5],highly significant reduction of AngII induced injury
same,Effect on ACR induced by AngII,"[1]; oral 30 minutes before AngII 10 μg i.v.+10 μg s.c., Enalapril 10 mg/kg, Losartan potassium 30 mg/kg, Tivozanib 3 mg/kg, FIG. 6, listed as Losartan potassium",strongest effect
same,Effect on ACR induced by AngII,[1]; [6],highly significant reduction of AngII induced injury
same,Effect on AngII induced loss of GFR,[2]; Losartan Potassium 30 mg/kg orally 30 min prior to AngII total 40 μg,AngII bolus had no effect on the GFR; also recorded: able to completely reverse the effect
same,Effect on AngII induced loss of GFR,[2]; Losartan Potassium 30 mg/kg orally 30 min prior to AngII total 50 μg,restored the GFR; also recorded: significant recovery of AngII induced loss of GFR
same,Effect on AVP induced loss of GFR,[3],did not restore the normal GFR; also recorded: did not restore or prevent the AVP induced loss of GFR
O=C(O)Cc1ccc2oc(-c3ccc(NC(=O)/C=C/c4ccc(Br)cc4)c(F)c3)nc2c1 [OGT2115],Effect on ACR induced by AngII,[1]; [6],significantly reduced
COc1cc2nccc(Oc3ccc(NC(=O)Nc4cc(C)on4)c(Cl)c3)c2cc1OC [Tivozanib],Effect on ACR induced by AngII,[1]; [5],no effect on ACR induced by AngII
"Asp-Arg-Val-Tyr-Ile-His-Pro-Phe (DRVYIHPF; printed: Asp-Arg-Val-Tyr-Ile-His-Pro-Phe) [AngII, human angiotensin II peptide hormone, used as renal injury inducer]",ACR in urine collected for 4 hours after AngII bolus injections,[1]; AngII 8 μg i.v.+8 μg s.c.,significant induction of ACR
same,ACR in urine collected for 4 hours after AngII bolus injections,[1]; AngII 10 μg i.v.+10 μg s.c.,significant induction of ACR; also recorded: significant increase of ACR
same,ACR on third experimental day after changed order of stimuli,"[1]; cross AGISHA, AngII 5 μg dose (group 1) and 10 μg dose (group 2)",dose dependent increase of injury
same,"ACR in urine collected for 4 hours after first AngII bolus injections, experimental day 1","[1]; cross AGISHA, AngII 5 μg i.v.+5 μg s.c.",significantly increased
same,"ACR in urine collected for 4 hours after first AngII bolus injections, experimental day 1","[1]; cross AGISHA, AngII 10 μg i.v.+10 μg s.c.",significantly increased
same,"ACR on day 2, 24 hours after first induction of acute glomerular injury","[1]; cross AGISHA, after AngII 5 μg or 10 μg dose",For none of the groups the analysis shows a detectable ACR
same,Half-life of the fluorescent molecule in the blood 2 h after AngII bolus injection,[4]; AngII 10 μg,decrease in half-life of the fluorescent molecule was significant
same,Half-life of the fluorescent molecule in the blood 2 h after AngII bolus injection,[4]; AngII 20 μg,decrease in half-life of the fluorescent molecule was significant
same,"Half-life of FICOLL-FITC transcutaneous fluorescence, representative curve","[4]; animals treated with AngII, control (0.9% NaCl) ca. 396 minutes",ca. 180 min
same,GFR 2 hrs after AngII bolus injection,[2]; total 40 μg AngII (20 μg i.v.+20 μg s.c.),decreased but not significantly decreased; also recorded: decrease in GFR
same,GFR 2 hrs after AngII bolus injection,[2]; total 50 μg AngII (20 μg i.v.+30 μg s.c.),highly significant reduction of the GFR; also recorded: significantly reduced
